US9637472B2, “Substituted 6,5-fused bicyclic heteroaryl compounds” (Epizyme, Inc., priority 2011, dated 2017)

Target: EZH2 (Homo sapiens (Human), UniProt Q15910)
Test: PRC2 enzyme assay on peptide substrates
Type: biochemical
Settings: PRC2 enzyme assays on peptide substrates; 4 nM enzyme, 30 min preincubation at 25° C.; read-out: EZH2 IC50

EZH2, sequence (Q15910 other isoform, or with tags, fused parts or gaps): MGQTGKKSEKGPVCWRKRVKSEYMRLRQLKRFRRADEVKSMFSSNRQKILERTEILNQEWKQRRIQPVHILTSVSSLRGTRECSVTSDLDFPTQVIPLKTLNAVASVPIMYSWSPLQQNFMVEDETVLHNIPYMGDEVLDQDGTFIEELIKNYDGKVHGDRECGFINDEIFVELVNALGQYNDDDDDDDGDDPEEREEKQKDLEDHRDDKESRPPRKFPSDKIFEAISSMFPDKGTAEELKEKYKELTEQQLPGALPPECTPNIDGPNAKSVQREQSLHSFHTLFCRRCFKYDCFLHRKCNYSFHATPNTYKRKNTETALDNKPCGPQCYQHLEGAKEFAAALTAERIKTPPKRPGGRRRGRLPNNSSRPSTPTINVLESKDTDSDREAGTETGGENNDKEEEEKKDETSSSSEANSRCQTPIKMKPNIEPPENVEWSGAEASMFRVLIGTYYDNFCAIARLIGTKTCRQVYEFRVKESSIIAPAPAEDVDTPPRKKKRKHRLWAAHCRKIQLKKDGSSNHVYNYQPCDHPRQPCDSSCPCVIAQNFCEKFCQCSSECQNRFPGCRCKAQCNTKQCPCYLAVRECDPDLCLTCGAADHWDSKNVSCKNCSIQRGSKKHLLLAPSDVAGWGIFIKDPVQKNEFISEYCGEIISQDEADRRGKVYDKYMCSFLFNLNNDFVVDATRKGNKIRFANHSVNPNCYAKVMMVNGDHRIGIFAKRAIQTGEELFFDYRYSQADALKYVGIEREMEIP
EZH2, sequence (O75530 whole entry partner): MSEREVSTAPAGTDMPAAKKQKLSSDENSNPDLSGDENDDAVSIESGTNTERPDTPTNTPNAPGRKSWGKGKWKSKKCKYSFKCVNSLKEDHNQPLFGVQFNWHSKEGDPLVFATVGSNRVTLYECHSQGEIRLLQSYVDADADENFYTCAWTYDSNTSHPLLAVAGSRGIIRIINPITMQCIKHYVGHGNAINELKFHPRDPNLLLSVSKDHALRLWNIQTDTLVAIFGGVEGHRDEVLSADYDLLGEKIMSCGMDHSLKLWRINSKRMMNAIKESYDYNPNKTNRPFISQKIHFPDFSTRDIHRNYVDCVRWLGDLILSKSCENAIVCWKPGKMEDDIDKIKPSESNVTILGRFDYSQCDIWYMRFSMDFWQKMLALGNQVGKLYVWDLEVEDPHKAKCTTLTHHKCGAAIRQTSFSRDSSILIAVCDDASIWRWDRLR
EZH2, sequence (Q15022 whole entry partner): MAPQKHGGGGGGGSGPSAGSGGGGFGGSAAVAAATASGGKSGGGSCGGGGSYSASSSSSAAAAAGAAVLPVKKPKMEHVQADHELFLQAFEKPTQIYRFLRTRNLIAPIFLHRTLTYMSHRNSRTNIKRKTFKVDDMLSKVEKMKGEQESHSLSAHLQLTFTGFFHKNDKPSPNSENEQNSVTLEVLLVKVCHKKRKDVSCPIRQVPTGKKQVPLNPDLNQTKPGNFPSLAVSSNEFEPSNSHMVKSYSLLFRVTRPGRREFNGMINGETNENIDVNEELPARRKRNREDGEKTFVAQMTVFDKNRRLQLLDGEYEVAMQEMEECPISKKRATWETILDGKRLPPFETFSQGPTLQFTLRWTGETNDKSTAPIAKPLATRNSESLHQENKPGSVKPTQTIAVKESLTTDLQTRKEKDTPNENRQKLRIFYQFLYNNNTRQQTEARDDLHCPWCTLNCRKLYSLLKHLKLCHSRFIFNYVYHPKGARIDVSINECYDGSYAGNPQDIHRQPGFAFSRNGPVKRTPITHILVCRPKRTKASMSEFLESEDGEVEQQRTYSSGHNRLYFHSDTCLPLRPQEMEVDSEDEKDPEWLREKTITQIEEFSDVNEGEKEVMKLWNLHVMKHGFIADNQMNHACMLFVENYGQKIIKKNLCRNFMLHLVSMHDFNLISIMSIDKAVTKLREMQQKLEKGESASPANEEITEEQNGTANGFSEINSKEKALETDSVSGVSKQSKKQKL
EZH2, sequence (Q09028 whole entry partner): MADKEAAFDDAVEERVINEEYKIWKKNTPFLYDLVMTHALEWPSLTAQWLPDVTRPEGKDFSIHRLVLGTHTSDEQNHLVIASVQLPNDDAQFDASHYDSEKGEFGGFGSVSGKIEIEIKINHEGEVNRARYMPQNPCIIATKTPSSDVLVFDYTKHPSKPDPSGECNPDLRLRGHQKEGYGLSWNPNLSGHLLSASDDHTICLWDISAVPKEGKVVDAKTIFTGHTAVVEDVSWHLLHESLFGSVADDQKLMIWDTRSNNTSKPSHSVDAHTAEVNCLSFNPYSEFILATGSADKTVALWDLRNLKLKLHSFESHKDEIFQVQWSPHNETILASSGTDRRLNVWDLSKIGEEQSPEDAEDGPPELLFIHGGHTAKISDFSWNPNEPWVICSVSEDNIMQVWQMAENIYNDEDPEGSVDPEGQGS

| SMILES | IC50 [nM] |
| --- | --- |
| COCCNCc1cc(C(=O)NCc2c(C)cc(C)[nH]c2=O)c2cnn(C3CCCC3)c2c1 [Compound D-73] | 1000 to 3000 |
| Cc1cc(C)c(CNC(=O)c2cc(-c3cnn(C)c3)nc3c2cnn3C(C)C)c(=O)[nH]1 [Compound A-48] | 1000 to 3000 |
| Cc1cc(C)c(CNC(=O)c2cc(C3=CC(C)(C)NC(C)(C)C3)cc3c2cnn3C2CCN(C(=O)C(C)(C)C)CC2)c(=O)[nH]1 [Compound D-25] | < 300 |
| CC(=O)N1CCC(c2cc(C(=O)NCc3c(C)cc(C)[nH]c3=O)c3cnn(C(C)C)c3n2)CC1 [Compound B-78] | 300 to 1000 |
| Cc1cc(C)c(CNC(=O)c2cc(C3=CC(C)(C)NC(C)(C)C3)cc3c2cnn3C2CCCC2)c(=O)[nH]1 [Compound D-2, 1-cyclopentyl-N-((4,6-dimethyl-2-oxo-1,2-dihydropyridin-3-yl)methyl)-6-(2,2,6,6-tetramethyl-1,2,3,6-tetrahydropyridin-4-yl)-1H-indazole-4-carboxamide] | < 300 |
| Cc1cc(C)c(CNC(=O)c2cc(-c3ccc(-c4ccccc4CN)nc3)nc3c2cnn3C(C)C)c(=O)[nH]1 [Compound A-68] | 3000 to 10000 |
| CC(=O)N1CC(n2ncc3c(C(=O)NCc4c(C)cc(C)[nH]c4=O)cc(Br)cc32)C1 [Compound D-35] | 1000 to 3000 |
| Cc1cc(C)c(CNC(=O)c2cc(C3CCN(C(=O)C(O)CN)CC3)nc3c2cnn3C(C)C)c(=O)[nH]1 (stereo not drawn) [Compound B-96] | 1000 to 3000 |
| CNCCCOc1ccc(-c2cc(C(=O)NCc3c(C)cc(C)[nH]c3=O)c3cnn(C4CCCC4)c3c2)cc1 [Compound C-12, 1-cyclopentyl-N-((4,6-dimethyl-2-oxo-1,2-dihydropyridin-3-yl)methyl)-6-(4-(3-(methylamino)propoxy)phenyl)-1H-indazole-4-carboxamide] | < 300 |
| Cc1cc(C)c(CNC(=O)c2cc(C3=CCN(CCS(C)(=O)=O)CC3)nc3c2cnn3C(C)C)c(=O)[nH]1 [Compound B-89] | 1000 to 3000 |
| Cc1cc(C)c(CNC(=O)c2cc(Br)cc3c2cnn3C2CCN(C3CCN(C)CC3)CC2)c(=O)[nH]1 [Compound D-16, 6-bromo-N-((4,6-dimethyl-2-oxo-1,2-dihydropyridin-3-yl)methyl)-1-(1′-methyl-[1,4′-bipiperidin]-4-yl)-1H-indazole-4-carboxamide] | < 300 |
| Cc1cc(C)c(CNC(=O)c2cc(Br)cc3c2cnn3C2CCN(C(=O)C(C)(C)C)C2)c(=O)[nH]1 [Compound D-33] | < 300 |
| Cc1cc(C)c(CNC(=O)c2cc(-c3cccnc3N3CCN(C)CC3)nc3c2cnn3C(C)C)c(=O)[nH]1 [Compound A-63] | 1000 to 3000 |
| CCc1cc(C(=O)NCc2c(C)cc(C)[nH]c2=O)c2cnn(C(C)C)c2n1 [Compound B-117] | 1000 to 3000 |
| Cc1cc(C)c(CNC(=O)c2cc(-c3ccc(CN)cc3)nc3c2cnn3C(C)C)c(=O)[nH]1 [Compound A-14, 6-(4-(aminomethyl)phenyl)-N-((4,6-dimethyl-2-oxo-1,2-dihydropyridin-3-yl)methyl)-1-isopropyl-1H-pyrazolo[3,4-b]pyridine-4-carboxamide] | < 300 |
| Cc1cc(C)c(CNC(=O)c2cc(N3CCC(N4CCN(CCS(C)(=O)=O)CC4)CC3)nc3c2cnn3C(C)C)c(=O)[nH]1 [Compound B-102] | 1000 to 3000 |
| Cc1cc(C)c(CNC(=O)c2cc(C3=CC(C)(C)NC(C)(C)C3)nc3c2cnn3C)c(=O)[nH]1 [Compound B-153] | 10000 to 50000 |
| Cc1cc(C)c(CNC(=O)c2cc(Br)cc3c2cnn3C2CCN(C(=O)C3CCC3)CC2)c(=O)[nH]1 [Compound D-98] | 300 to 1000 |
| Cc1cc(C)c(CNC(=O)c2cc(C3CCN(C4CCNCC4)CC3)nc3c2cnn3C(C)C)c(=O)[nH]1 [Compound B-29, 6-([1,4′-bipiperidin]-4-yl)-N-((4,6-dimethyl-2-oxo-1,2-dihydropyridin-3-yl)methyl)-1-isopropyl-1H-pyrazolo[3,4-b]pyridine-4-carboxamide] | < 300 |
| Cc1cc(C)c(CNC(=O)c2cc(-c3cnn(CCN4CCOCC4)c3)cc3c2cnn3C2CCCC2)c(=O)[nH]1 [Compound C-33] | < 300 |
| Cc1cc(C)c(CNC(=O)c2cc(O)nc3c2cnn3C(C)C)c(=O)[nH]1 [Compound B-147] | 10000 to 50000 |
| Cc1cc[nH]c(=O)c1CNC(=O)c1cc(-c2ccc3c(c2)OCCO3)nc2c1cnn2C(C)C [Compound A-77] | 10000 to 50000 |
| Cc1cc(C)c(CNC(=O)c2cc(C3CCN(C)CC3)nc3c2cnn3C(C)C)c(=O)[nH]1 [Compound B-73] | 300 to 1000 |
| C=CCn1ncc2c(C(=O)NCc3c(C)cc(C)[nH]c3=O)cc(C3=CC(C)(C)NC(C)(C)C3)nc21 [Compound B-155] | 10000 to 50000 |
| Cc1cc(C)c(CNC(=O)c2cc(Br)cc3c2cnn3C2CCN(C(=O)OC(C)(C)C)C2)c(=O)[nH]1 [Compound D-32] | 300 to 1000 |
| Cc1cc(C)c(CNC(=O)c2cc(-c3ccc(CN4CCOCC4)cc3)nc3c2cnn3C2CCCC2)c(=O)[nH]1 [Compound A-1, 1-cyclopentyl-N-((4,6-dimethyl-2-oxo-1,2-dihydropyridin-3-yl)methyl)-6-(4-(morpholinomethyl)phenyl)-1H-pyrazolo[3,4-b]pyridine-4-carboxamide] | < 300 |

| SMILES | IC50 [nM] |
| --- | --- |
| Cc1cc(C)c(CNC(=O)c2cc(-c3cccc(CN4CCN(C)CC4)c3)cc3c2cnn3C(C)C)c(=O)[nH]1 [Compound C-24] | < 300 |
| CNCCN1CC=C(c2cc(C(=O)NCc3c(C)cc(C)[nH]c3=O)c3cnn(C4CCCC4)c3c2)CC1 [Compound D-48] | < 300 |
| COCCOCc1cc(C(=O)NCc2c(C)cc(C)[nH]c2=O)c2cnn(C3CCCC3)c2c1 [Compound D-72] | 1000 to 3000 |
| Cc1cc(C)c(CNC(=O)c2c(Cl)c(C3=CC(C)(C)NC(C)(C)C3)nc3c2cnn3C(C)C)c(=O)[nH]1 [Compound B-12, 5-chloro-N-((4,6-dimethyl-2-oxo-1,2-dihydropyridin-3-yl)methyl)-1-isopropyl-6-(2,2,6,6-tetramethyl-1,2,3,6-tetrahydropyridin-4-yl)-1H-pyrazolo[3,4-b]pyridine-4-carboxamide] | 1000 to 3000 |
| Cc1cc(C)c(CNC(=O)c2cc(C3=CC(C)(C)NC(C)(C)C3)nc3c2cnn3C2CCN(Cc3ccccc3)CC2)c(=O)[nH]1 [Compound B-1, 1-(1-benzylpiperidin-4-yl)-N-((4,6-dimethyl-2-oxo-1,2-dihydropyridin-3-yl)methyl)-6-(2,2,6,6-tetramethyl-1,2,3,6-tetrahydropyridin-4-yl)-1H-pyrazolo[3,4-b]pyridine-4-carboxamide] | < 300 |
| Cc1cc(C)c(CNC(=O)c2cc(C3=CC(C)(C)NC(C)(C)C3)nc3c2cnn3C2CCNCC2)c(=O)[nH]1 [Compound B-107] | 1000 to 3000 |
| Cc1cc(C)c(CNC(=O)c2cc(N(C)CCN(C)C)nc3c2cnn3C(C)C)c(=O)[nH]1 [Compound B-135] | 3000 to 10000 |
| CC(=O)N1CCC(n2ncc3c(C(=O)NCc4c(C)cc(C)[nH]c4=O)cc(C4=CC(C)(C)NC(C)(C)C4)nc32)CC1 [Compound B-2, 1-(1-acetylpiperidin-4-yl)-N-((4,6-dimethyl-2-oxo-1,2-dihydropyridin-3-yl)methyl)-6-(2,2,6,6-tetramethyl-1,2,3,6-tetrahydropyridin-4-yl)-1H-pyrazolo[3,4-b]pyridine-4-carboxamide] | 300 to 1000 |
| Cc1cc(C)c(CNC(=O)c2cc(CNCCN(C)C)cc3c2cnn3C2CCCC2)c(=O)[nH]1 [Compound D-53] | 300 to 1000 |
| Cc1cc(C)c(CNC(=O)c2cc(C3=CC(C)(C)NC(C)(C)C3)nc3c2cnn3CC2CC2)c(=O)[nH]1 [Compound B-130] | 3000 to 10000 |
| Cc1cc(C)c(CNC(=O)c2cc(-c3ccc(CN(C)CCCN(C)C)cc3)cc3c2cnn3C2CCCC2)c(=O)[nH]1 [Compound C-17] | < 300 |
| CC(=O)Nc1cc(C(=O)NCc2c(C)cc(C)[nH]c2=O)c2cnn(C(C)C)c2n1 [Compound B-121] | 1000 to 3000 |
| Cc1cc(C)c(CNC(=O)c2c(Cl)c(-c3ccc4c(c3)OCCO4)cc3c2cnn3C(C)C)c(=O)[nH]1 [Compound A-47] | 300 to 1000 |
| Cc1cc(C)c(CNC(=O)c2cc(C3=CCN(C(=O)CN(C)C)CC3)nc3c2cnn3C(C)C)c(=O)[nH]1 [Compound B-53] | 300 to 1000 |
| Cc1cc(C)c(CNC(=O)c2cc(C3CCN(CCC(F)(F)F)CC3)nc3c2cnn3C(C)C)c(=O)[nH]1 [Compound B-71] | 300 to 1000 |
| Cc1cc(C)c(CNC(=O)c2cc(Br)cc3c2cnn3C2CN(C(=O)C(C)(C)C)C2)c(=O)[nH]1 [Compound D-36] | 1000 to 3000 |
| Cc1cc(CO)c(CNC(=O)c2cc(-c3ccc(CN4CCOCC4)cc3)nc3c2cnn3C(C)C)c(=O)[nH]1 [Compound A-96] | 3000 to 10000 |
| C=C(C)Cn1ncc2c(C(=O)NCc3c(C)cc(C)[nH]c3=O)cc(C3=CC(C)(C)NC(C)(C)C3)nc21 [Compound B-3, N-((4,6-dimethyl-2-oxo-1,2-dihydropyridin-3-yl)methyl)-1-(2-methylallyl)-6-(2,2,6,6-tetramethyl-1,2,3,6-tetrahydropyridin-4-yl)-1H-pyrazolo[3,4-b]pyridine-4-carboxamide] | 1000 to 3000 |
| Cc1cc(C)c(CNC(=O)c2cc(C3CCN(C(=O)CCN)CC3)nc3c2cnn3C(C)C)c(=O)[nH]1 [Compound B-62] | 300 to 1000 |
| Cc1cc(C)c(CNC(=O)c2cc(N3CCC(O)CC3)nc3c2cnn3C(C)C)c(=O)[nH]1 [Compound B-11, N-((4,6-dimethyl-2-oxo-1,2-dihydropyridin-3-yl)methyl)-6-(4-hydroxypiperidin-1-yl)-1-isopropyl-1H-pyrazolo[3,4-b]pyridine-4-carboxamide] | 1000 to 3000 |
| Cc1cc(C)c(CNC(=O)c2cc(COCCO)cc3c2cnn3C2CCCC2)c(=O)[nH]1 [Compound D-68] | 300 to 1000 |
| Cc1cc(C)c(CNC(=O)c2cc(C3=CCN(C(=O)CO)CC3)nc3c2cnn3C(C)C)c(=O)[nH]1 [Compound B-82] | 300 to 1000 |
| Cc1cc(C)c(CNC(=O)c2cc(C3CCN(CCS(C)(=O)=O)CC3)nc3c2cnn3C(C)C)c(=O)[nH]1 [Compound B-83] | 300 to 1000 |
| Cc1cc(C)c(CNC(=O)c2cc(C3=CC(C)(C)NC(C)(C)C3)nc3c2cnn3C2C=CCCC2)c(=O)[nH]1 (stereo not drawn) [Compound B-103] | 1000 to 3000 |
| Cc1cc(CN(C)C)c(CNC(=O)c2cc(-c3ccc(CN4CCOCC4)cc3)nc3c2cnn3C(C)C)c(=O)[nH]1 [Compound A-43] | 300 to 1000 |
